Test results: patent US10017534B2, “Method for producing Tebbe complex” (KURARAY CO., LTD., priority 2014, dated 2018)

Assay: Measurement of solubility of Tebbe complex in a solvent (atomic absorption analysis of filtrate)
Conditions: for Solubility of Tebbe complex / Titanium atom contained in filtrate: 25° C.
Experimental: The measurement of the solubility of the Tebbe complex in a solvent was performed in the following manner. That is, 4 mL of a solvent of every kind was added to 1 g of a Tebbe complex obtained in the following Preparation Example 1; a solution after stirring at 25° C. for one hour was filtered with a membrane filter of 0.2 μm; the filtrate was subjected to atomic absorption analysis using the aforementioned polarized Zeeman atomic absorption spectrophotometer; and a titanium atom concentration was measured.
The measurement of the solubility of the Tebbe complex in a solvent was performed in the following manner. That is, 4 mL of a solvent of every kind was added to 1 g of the Tebbe complex obtained in Preparation Example 1; a solution after stirring at 25° C. for one hour was filtered with a membrane filter of 0.2 μm; and the filtrate was subjected to atomic absorption analysis using the aforementioned polarized Zeeman atomic absorption spectrophotometer, thereby measuring a titanium atom concentration.
Using a glove box, 1.0 g of the brownish-red crystal b1 of the Tebbe complex obtained in the method of Preparation Example 1 was weighed in a 20-mL eggplant type flask in an argon atmosphere, and a rotator and 4 mL of dehydrated hexane were added, followed by stirring at 25° C. for one hour. Thereafter, the resultant was allowed to stand and then filtered with a membrane filter of 0.2 μm, and 1.0 g of a filtrate containing the Tebbe complex was subjected to atomic absorption analysis, thereby measuring the solubility of the Tebbe complex.

## μ-chloro-μ-methylene-bis(η^5-cyclopentadienyl)titanium dimethylaluminum [Tebbe complex]
1,4-dioxane
  Solubility of Tebbe complex: 1.43 mmol/g
  Titanium atom contained in filtrate: 6.84 % by mass
2-hexene
  Solubility of Tebbe complex: 0.27 mmol/g
  Titanium atom contained in filtrate: 1.29 % by mass
2-methylpentane
  Solubility of Tebbe complex: 0.21 mmol/g
  Titanium atom contained in filtrate: 1.01 % by mass
Aliphatic hydrocarbons of Test Examples 1 to 6, 25° C.
  solubility of the Tebbe complex in 1 g of the solvent: ≤ 0.5 mmol/g
Aromatic hydrocarbons and ether compounds of Comparative Test Examples 1 to 8, 25° C.
  solubility of the Tebbe complex in 1 g of the solvent: more than 0.5 mmol/g
benzene
  Solubility of Tebbe complex: 1.18 mmol/g
  Titanium atom contained in filtrate: 5.65 % by mass
cyclohexane
  Solubility of Tebbe complex: 0.45 mmol/g
  Titanium atom contained in filtrate: 2.15 % by mass
Cyclopentyl methyl ether
  Solubility of Tebbe complex: 1.29 mmol/g
  Titanium atom contained in filtrate: 6.17 % by mass
Diisopropyl ether
  Solubility of Tebbe complex: 0.60 mmol/g
  Titanium atom contained in filtrate: 2.87 % by mass
dodecane
  Solubility of Tebbe complex: 0.12 mmol/g
  Titanium atom contained in filtrate: 0.57 % by mass
heptane
  Solubility of Tebbe complex: 0.21 mmol/g
  Titanium atom contained in filtrate: 1.01 % by mass
hexane
  Solubility of Tebbe complex: 0.22 mmol/g
  Titanium atom contained in filtrate: 1.05 % by mass
Methylene chloride
  Solubility of Tebbe complex: 1.49 mmol/g
  Titanium atom contained in filtrate: 7.13 % by mass
p-xylene
  Solubility of Tebbe complex: 0.94 mmol/g
  Titanium atom contained in filtrate: 4.50 % by mass
tetrahydrofuran
  Solubility of Tebbe complex: 1.71 mmol/g
  Titanium atom contained in filtrate: 8.19 % by mass
toluene
  Solubility of Tebbe complex: 0.93 mmol/g
  Titanium atom contained in filtrate: 4.45 % by mass
